Converted amounts (≈) assume the structure as drawn.
How the values were obtained:
[1] = system: NB4 (acute promyelocytic leukemia, AML); assay: MTT leukemia cell growth inhibition, 72 h; assay type: cell-based, human; details: Homo sapiens, NB4, 72 h; for IC50: read-out: IC50; for IC90: read-out: IC90
Text: (§1) Leukemia cell lines: K562/adr (drug-resistant, chronic myeloid leukemia, CML), NB4 (acute promyelocytic leukemia, AML), Kasumi-1 (acute myeloid leukemia M2 type, AML-M2), Jurkat (acute lymphoblastic leukemia, ALL), all of which are donated by Cancer Research Institute of Zhejiang University, China; and H9 (acute lymphoblastic leukemia, ALL), which is purchased from China Center for Type Culture Collection.
(§2) Obtaining 6000 well-growing leukemia cells and inoculating them into wells of a 96-well cell culture plate. The culture medium is the 1640 cell culture medium containing 10% fetal bovine serum. After adding the homoharringtonine derivatives of different concentrations and mixing uniformly, placing the plate in a carbon dioxide cell incubator (5% CO2) at 37° C. and incubating for 72 hours. Then the viable cell concentration is determined by the MTT method. In this experiment, the cell viability in control group (not treated with any compound) is set as 100%.

[2] = system: K562/adr (drug-resistant, chronic myeloid leukemia, CML); assay: MTT leukemia cell growth inhibition, 72 h; assay type: cell-based, human; details: Homo sapiens, K562/Adr; for IC50: read-out: IC50; for IC90: read-out: IC90
Text: as §1, §2

[3] = system: H9 (acute lymphoblastic leukemia, ALL); assay: MTT leukemia cell growth inhibition, 72 h; assay type: cell-based, human; details: Homo sapiens, H9, 72 h; for IC50: read-out: IC50; for IC90: read-out: IC90
Text: as §1, §2

[4] = system: Kasumi-1 (acute myeloid leukemia M2 type, AML-M2); assay: MTT leukemia cell growth inhibition, 72 h; assay type: cell-based, human; details: Homo sapiens, Kasumi-1, 72 h; for IC50: read-out: IC50; for IC90: read-out: IC90
Text: as §1, §2

[5] = system: Jurkat (acute lymphoblastic leukemia, ALL); assay: MTT leukemia cell growth inhibition, 72 h; assay type: cell-based, human; details: Homo sapiens; for IC50: read-out: IC50; for IC90: read-out: IC90
Text: as §1, §2

[6] = system: Huh7 (human liver cancer cell); assay: MTT solid tumor cell growth inhibition, 72 h; assay type: cell-based; details: Homo sapiens, Huh-7, Huh7, 72 h; for IC50: read-out: IC50; for IC90: read-out: IC90
Procedure: (§3) Human solid tumor cell lines: Hep-2 ([…]), A549 (human lung cancer), CaES-17 (esophageal cancer cell), PC-3 (prostate cancer), CNE (nasopharyngeal carcinoma cell), and SK-OV-3 (ovarian cancer cell), all of which are purchased from China Center For Type Culture Collection; RKO (human colon adenocarcinoma cell), MGC 803 (human gastric cancer cell), MG63 (osteosarcoma) and U87 MG (malignant glioma cell), all of which are purchased from Fuxiang Bio-tech Co. Ltd., Shanghai, China; PANC-1 (pancreatic cancer), Huh7 (human liver cancer cell), Becap37 (human breast cancer cell), and Hela (human cervical cancer cell), all of which are donated by Cancer Research Institute of Zhejiang University, China.
(§4) Obtaining 4000 well-growing human solid tumor cells and inoculating them into wells of a 96-well cell culture plate. The culture medium is DMEM High Glucose cell culture medium containing 10% fetal bovine serum. The plate is placed in a carbon dioxide cell incubator (5% CO2) at 37° C. and incubating for 24 hours. After adding the homoharringtonine derivatives of different concentration and mixing uniformly, the plate is placed in a carbon dioxide cell incubator (5% CO2) at 37° C. and incubating for 72 hours. Then the viable cell concentration is determined by the MTT method and the cell viability (%) after drug treatment is calculated. In this experiment, the cell viability of control group (not treated with any compound) is set as 100%.

[7] = system: MGC 803 (human gastric cancer cell); assay: MTT solid tumor cell growth inhibition, 72 h; assay type: cell-based; details: Homo sapiens, MGC 803, 72 h; for IC50: read-out: IC50; for IC90: read-out: IC90
Procedure: as §3, §4

[8] = system: Hep-2 (human hepatocellular carcinoma); assay: MTT solid tumor cell growth inhibition, 72 h; assay type: cell-based; details: Homo sapiens, HEp-2, Hep2, 72 h; for IC50: read-out: IC50; for IC90: read-out: IC90
Procedure: as §3, §4

[9] = system: RKO (human colon adenocarcinoma cell); assay: MTT solid tumor cell growth inhibition, 72 h; assay type: cell-based; details: Homo sapiens; for IC50: read-out: IC50; for IC90: read-out: IC90
Procedure: as §3, §4

[10] = system: A549 (human lung cancer); assay: MTT solid tumor cell growth inhibition, 72 h; assay type: cell-based; details: Homo sapiens, A549, 72 h; for IC50: read-out: IC50; for IC90: read-out: IC90
Procedure: as §3, §4

[11] = system: Becap37 (human breast cancer cell); assay: MTT solid tumor cell growth inhibition, 72 h; assay type: cell-based; details: Homo sapiens, Becap37, 72 h; for IC50: read-out: IC50; for IC90: read-out: IC90
Procedure: as §3, §4

[12] = system: Hela (human cervical cancer cell); assay: MTT solid tumor cell growth inhibition, 72 h; assay type: cell-based; details: Homo sapiens, HeLa; for IC50: read-out: IC50; for IC90: read-out: IC90
Procedure: as §3, §4

[13] = system: CaES-17 (esophageal cancer cell); assay: MTT solid tumor cell growth inhibition, 72 h; assay type: cell-based, human; details: Homo sapiens, CaEs17, CaES-17, 72 h; for IC50: read-out: IC50; for IC90: read-out: IC90
Procedure: as §3, §4

[14] = system: PC-3 (prostate cancer); assay: MTT solid tumor cell growth inhibition, 72 h; assay type: cell-based, human; details: Homo sapiens, PC-3, 72 h; for IC50: read-out: IC50; for IC90: read-out: IC90
Procedure: as §3, §4

[15] = system: CNE (nasopharyngeal carcinoma cell); assay: MTT solid tumor cell growth inhibition, 72 h; assay type: cell-based, human; details: Homo sapiens; for IC50: read-out: IC50; for IC90: read-out: IC90
Procedure: as §3, §4

[16] = system: MG63 (osteosarcoma); assay: MTT solid tumor cell growth inhibition, 72 h; assay type: cell-based, human; details: Homo sapiens, MG 63, 72 h; for IC50: read-out: IC50; for IC90: read-out: IC90
Procedure: as §3, §4

[17] = system: SK-OV-3 (ovarian cancer cell); assay: MTT solid tumor cell growth inhibition, 72 h; assay type: cell-based, human; details: Homo sapiens, SK-OV-3, 72 h; for IC50: read-out: IC50; for IC90: read-out: IC90
Procedure: as §3, §4

[18] = system: U87 MG (malignant glioma cell); assay: MTT solid tumor cell growth inhibition, 72 h; assay type: cell-based, human; details: Homo sapiens, U-87 MG; for IC50: read-out: IC50; for IC90: read-out: IC90
Procedure: as §3, §4

[19] = system: PANC-1 (pancreatic cancer); assay: MTT solid tumor cell growth inhibition, 72 h; assay type: cell-based, human; details: Homo sapiens, PANC-1, 72 h; for IC50: read-out: IC50; for IC90: read-out: IC90
Procedure: as §3, §4

[20] = system: RPMI8226 (multiple myeloma); assay: MTT multiple myeloma cell growth inhibition, 72 h; assay type: cell-based, human; details: Homo sapiens, RPMI-8226, RPMI8226, 72 h; for IC50: read-out: IC50; for IC90: read-out: IC90
Procedure: Multiple myeloma and lymphoma cell lines: RPMI8226 (multiple myeloma), purchased from Fuxiang Bio-tech Co. Ltd., Shanghai, China.
as §2, with “method.” for “method. In this experiment, the cell viability in control group (not treated with any compound) is set as 100%.”

| Structure (SMILES) | IC50 [1] | IC90 [1] | IC50 [2] | IC90 [2] | IC50 [3] | IC90 [3] | IC50 [4] | IC90 [4] | IC50 [5] | IC90 [5] | IC50 [6] | IC90 [6] | IC50 [7] | IC90 [7] | IC50 [8] | IC90 [8] | IC50 [9] | IC90 [9] | IC50 [10] | IC90 [10] | further results |
| --- | --- | --- | --- | --- | --- | --- | --- | --- | --- | --- | --- | --- | --- | --- | --- | --- | --- | --- | --- | --- | --- |
| COC1=C[C@]23CCCN2CCc2cc4c(cc2[C@@H]3[C@@H]1OC(=O)[C@@](O)(CCCC(C)(C)O)CC(=O)N1CCN(C(C)C)CC1)OCO4 [BS-HH-034] | 0.48 µg/mL (≈ 0.748 µM) | 2.3 µg/mL (≈ 3.58 µM) | 4.53 µg/mL (≈ 7.06 µM) | 16 µg/mL (≈ 24.9 µM) | 0.6 µg/mL (≈ 0.935 µM) | 2.7 µg/mL (≈ 4.21 µM) | 0.31 µg/mL (≈ 0.483 µM) | 1.77 µg/mL (≈ 2.76 µM) | 0.46 µg/mL (≈ 0.717 µM) | 16 µg/mL (≈ 24.9 µM) | 1.05 µg/mL (≈ 1.64 µM) | > 16 µg/mL | 0.81 µg/mL (≈ 1.26 µM) | 11.8 µg/mL (≈ 18.4 µM) | 1.29 µg/mL (≈ 2.01 µM) | > 16 µg/mL | 0.18 µg/mL (≈ 0.28 µM) | 1.25 µg/mL (≈ 1.95 µM) | 1.74 µg/mL (≈ 2.71 µM) | > 16 µg/mL | IC50 [11]: 0.81 µg/mL (≈ 1.26 µM); IC90 [11]: > 16 µg/mL; IC50 [12]: 1.97 µg/mL (≈ 3.07 µM); IC90 [12]: > 16 µg/mL; IC50 [13]: 1.91 µg/mL (≈ 2.98 µM); IC90 [13]: 16 µg/mL (≈ 24.9 µM); IC50 [14]: 0.91 µg/mL (≈ 1.42 µM); IC90 [14]: > 16 µg/mL; IC50 [15]: 0.49 µg/mL (≈ 0.763 µM); IC90 [15]: 16 µg/mL (≈ 24.9 µM); IC50 [16]: 0.32 µg/mL (≈ 0.499 µM); IC90 [16]: 16 µg/mL (≈ 24.9 µM); IC50 [17]: 2.81 µg/mL (≈ 4.38 µM); IC90 [17]: > 16 µg/mL; IC50 [18]: 0.89 µg/mL (≈ 1.39 µM); IC90 [18]: 5.74 µg/mL (≈ 8.94 µM); IC50 [19]: 1.94 µg/mL (≈ 3.02 µM); IC90 [19]: > 16 µg/mL; IC50 [20]: 0.47 µg/mL (≈ 0.732 µM); IC90 [20]: 3.72 µg/mL (≈ 5.8 µM) |
| COC(=O)C[C@](O)(CCCC(C)(C)O)C(=O)O[C@@H]1C(OC)=C[C@]23CCCN2CCc2cc4c(cc2[C@H]13)OCO4 [HHT, O-3-[(2R)-2,6-dihydroxy-2-(2′-methoxy-2′-oxoethyl)-6-methylheptanoyl]cephalotaxine, reference compound] | 0.006 µg/mL (≈ 0.011 µM) | 0.012 µg/mL (≈ 0.022 µM) | 0.035 µg/mL (≈ 0.0641 µM) | 0.98 µg/mL (≈ 1.8 µM) | 0.02 µg/mL (≈ 0.0367 µM) | 0.046 µg/mL (≈ 0.0843 µM) | 0.005 µg/mL (≈ 0.00916 µM) | 0.024 µg/mL (≈ 0.044 µM) | 0.007 µg/mL (≈ 0.0128 µM) | 16 µg/mL (≈ 29.3 µM) | 0.004 µg/mL (≈ 0.00733 µM) | 0.049 µg/mL (≈ 0.0898 µM) | 0.016 µg/mL (≈ 0.0293 µM) | 0.2 µg/mL (≈ 0.367 µM) | 0.014 µg/mL (≈ 0.0257 µM) | > 16 µg/mL | 0.003 µg/mL (≈ 0.0055 µM) | 0.009 µg/mL (≈ 0.0165 µM) | 0.03 µg/mL (≈ 0.055 µM) | > 16 µg/mL | IC50 [11]: 0.01 µg/mL (≈ 0.0183 µM); IC90 [11]: 11.6 µg/mL (≈ 21.2 µM); IC50 [12]: 0.019 µg/mL (≈ 0.0348 µM); IC90 [12]: 16 µg/mL (≈ 29.3 µM); IC50 [13]: 0.037 µg/mL (≈ 0.0678 µM); IC90 [13]: > 16 µg/mL; IC50 [14]: 0.004 µg/mL (≈ 0.00733 µM); IC90 [14]: 0.049 µg/mL (≈ 0.0898 µM); IC50 [15]: 0.038 µg/mL (≈ 0.0696 µM); IC90 [15]: > 16 µg/mL; IC50 [16]: 0.01 µg/mL (≈ 0.0183 µM); IC90 [16]: 1.2 µg/mL (≈ 2.2 µM); IC50 [17]: 0.003 µg/mL (≈ 0.0055 µM); IC90 [17]: 0.009 µg/mL (≈ 0.0165 µM); IC50 [18]: 0.004 µg/mL (≈ 0.00733 µM); IC90 [18]: 0.018 µg/mL (≈ 0.033 µM); IC50 [19]: 0.035 µg/mL (≈ 0.0641 µM); IC90 [19]: > 16 µg/mL; IC50 [20]: 0.006 µg/mL (≈ 0.011 µM); IC90 [20]: 0.027 µg/mL (≈ 0.0495 µM) |

Source: patent US9676789B2, “Aminated derivative of homoharringtonine, preparation method therefor, and application thereof” (HANGZHOU BENSHENG PHARMACEUTICAL CO., LTD., priority 2011, dated 2017)
